The target of experiment [1] is T1, MarR (Escherichia coli, UniProt P27245). As to conditions: salicylate at millimolar concentrations; cited from earlier work.
Experiment [2] deals with T1, MarR. As to conditions: salicylate at millimolar concentrations; cited from earlier work. The source holds these as a separate data set.
Experiment [3] addresses MarR (wild type, Escherichia coli), one subunit of the MarR homodimer (E. coli). Nature of the experiment: X-ray crystal structure, MarR-salicylate co-crystal.

T1 sequence (P27245 whole entry): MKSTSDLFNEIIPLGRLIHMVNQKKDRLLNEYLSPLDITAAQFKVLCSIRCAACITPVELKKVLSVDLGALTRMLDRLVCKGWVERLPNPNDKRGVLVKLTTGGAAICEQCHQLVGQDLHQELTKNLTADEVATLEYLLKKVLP

As for `O=C([O-])c1ccccc1O.[Na+]` [sodium salicylate], the “MarR activity in whole cells” value at MarR [1] is listed as “inhibit MarR activity”. Further, the “MarR activity in vitro” value on MarR [2] was “inhibit MarR activity”.

In experiment [3], “MarR (wild type, Escherichia coli), one subunit of the MarR homodimer” yielded a buried surface area (N-/C-terminal hydrophobic core) of 3570 Å^2 and a total buried surface area for the whole dimer of 3700 Å^2.

These data come from patent US7075582B2, “Methods for identifying and using MarR family polypeptide binding compounds” (Paratek Pharmaceuticals, Inc., priority 2001, dated 2006).
